{
  "source": "patent US20150168379A1",
  "about": "“METHOD OF IDENTIFYING AND SCREENING DRUG CANDIDATE FOR PREVENTING AND/OR TREATING ISCHEMIC MYOCARDIAL DISEASE” (Macau University of Science and Technology, priority 2013, published 2015)",
  "key": {"H9C2 cell line [1]": {"test_system": "H9C2 cell line", "assay": "Survival rate of myocardial cells under hypoxia and reoxygenation (MTT)", "format": "cell-based", "conditions": "H9C2, pre-treated one hour before hypoxia, FIG. 2/3", "procedure": "(§1) Myocardial cell lines, H9C2 and HL-1 were respectively seeded into culture dishes. KRB (Krebs-Ringer Bicarbonate buffer) solution replaced normal DMEM medium without the addition of serum. Cells were immediately placed in adjustable hypoxia box (Billups-Rothenberg) connected with gas flowmeter (rate of flow: 25L/min), in which the partial pressure of oxygen in the box was made to decrease from 20 kPa to 0 kPa within one minute. Hypoxia box was placed in a regular incubator for different incubation periods to create hypoxia conditions. […]\nSeven components of protopanaxatriol-type ginsenosides, namely Re, Rf, Rg1, 20(S)-Rg2, 20(R)-Rg2, 20(S)-Rh1 and 20(R)-Rh1, were used to pre-treat myocardial cells. […] The effects of each component on survival, mitochondrial respiration, morphology, and mitochondrial function and movement of myocardial cells were analyzed, and the results thereof were used in candidate agent selection. […]\nOptical density (OD) of cells was measured at wavelength of 570 nm by multiple-well plate spectrophotometer. Survival rate of the cells incubated under normal condition was set as 100%, and the survival rate of the blank control group was measured simultaneously as baseline for background subtraction. […]"}, "H9C2 cell line [2]": {"test_system": "H9C2 cell line", "assay": "Apoptosis rate of myocardial cells under hypoxia and reoxygenation by flow cytometry", "format": "cell-based", "conditions": "3-hour hypoxia and 3-hour reoxygenation", "procedure": "as §1\n(§2) Seven components of protopanaxatriol-type ginsenosides, namely Re, Rf, Rg1, 20(S)-Rg2, 20(R)-Rg2, 20(S)-Rh1 and 20(R)-Rh1, were used to pre-treat myocardial cells. […] The effects of each component on survival, mitochondrial respiration, morphology, and mitochondrial function and movement of myocardial cells were analyzed, and the results thereof were used in candidate agent selection.\n(§3) Membrane potential of mitochondria, apoptosis rate, ROS release and cell cytotoxicity of myocardial cells were analyzed by flow cytometry. […] Fluorescence intensity of cells were analyzed by flow cytometry (each sample contains more than 10,000 cells). Cell fluorescence image was analyzed with fluorescence intensity of Rh123 as x-axis and fluorescence intensity of PI as y-axis. […]"}, "H9C2 cell line [3]": {"test_system": "H9C2 cell line", "assay": "Cell cytotoxicity of myocardial cells under hypoxia and reoxygenation by flow cytometry", "format": "cell-based", "conditions": "pretreated, FIG. 5", "procedure": "as §1, §2, §3"}, "H9C2 cell line [4]": {"test_system": "H9C2 cell line", "assay": "Mitochondrial membrane potential changes by flow cytometer (JC-1)", "format": "cell-based", "procedure": "Myocardial cell lines, H9C2 and HL-1 were respectively seeded into culture dishes. KRB (Krebs-Ringer Bicarbonate buffer) solution replaced normal DMEM medium without the addition of serum. Cells were immediately placed in adjustable hypoxia box (Billups-Rothenberg) connected with gas flowmeter (rate of flow: 25L/min), in which the partial pressure of oxygen in the box was made to decrease from 20 kPa to 0 kPa within one minute. Hypoxia box was placed in a regular incubator for different incubation periods to create hypoxia conditions. Hypoxia box was then opened and the medium was replaced with normal medium containing serum, followed by normal incubation at 37° C. for the time periods corresponding to those in the hypoxia conditions in order to create re-oxygenation conditions.\nSeven components of protopanaxatriol-type ginsenosides, namely Re, Rf, Rg1, 20(S)-Rg2, 20(R)-Rg2, 20(S)-Rh1 and 20(R)-Rh1, were used to pre-treat myocardial cells. Each component was dissolved with normal medium and DMSO as co-solvent and used to pre-treat cells one hour before hypoxia. Subsequently, medium was replaced with hypoxia medium. The effects of each component on survival, mitochondrial respiration, morphology, and mitochondrial function and movement of myocardial cells were analyzed, and the results thereof were used in candidate agent selection.\nMembrane potential of mitochondria, apoptosis rate, ROS release and cell cytotoxicity of myocardial cells were analyzed by flow cytometry. Upon pre-treatment of cells in different groups with Rg1, Sil (Sildenafil, the positive control drug), DOX (Doxorubicin, a cardiac toxic chemical which can induce H/R damage in myocardial cells) or FCCP (Carbonyl cyanide 4-(trifluoromethoxy) phenylhydrazone), the cells were then treated with hypoxia and reoxygenation conditions, in which the duration of each condition was 3 hours. 1 ml PBS buffer was added into culture dish with mixing. […] Fluorescence intensity of cells were analyzed by flow cytometry (each sample contains more than 10,000 cells). […]"}, "H9C2 cell line [5]": {"test_system": "H9C2 cell line", "assay": "ROS release (DCFDA, flow cytometer)", "format": "cell-based", "procedure": "Cells were harvested and a single cell suspension was produced by gently pipetting up and down suspension cells or by fully detaching adherent cells. Cells in culture media were stained with 20 μM DCFDA and incubated for 30 minutes at 37° C. After staining, cells were treated with Rg1, DOX or Sil. Cells were gently pipetted to produce single cell suspension. Cells were then analyzed by flow cytometer in which forward and side scatter gates were established to exclude debris and cellular aggregates from the analysis. DCF was excited by the 488 nm laser and detected at 535 nm (typically FL1). 10,000 cells were analyzed per experimental condition. The whole study was repeated 3 times."}, "[6]": {"test_system": "bal-2, procaspase-3, procaspase-9, Akt, and Erk in myocardial cells", "assay": "Expression levels of proteins of the mitochondrial-induced apoptosis pathway by western blotting", "format": "cell-based", "conditions": "100 μM"}, "Mitofusin 2 (Mfn2)": {"biological_target": "T1, Mitofusin 2 (Mfn2) (Mus musculus, UniProt Q80U63)", "T1 construct": "endogenous in cells; host or cells: myocardial cells under hypoxia and reoxygenation (method text: total protein from mouse myocardial infarction tissue)", "T1 sequence (Q80U63 1-757)": "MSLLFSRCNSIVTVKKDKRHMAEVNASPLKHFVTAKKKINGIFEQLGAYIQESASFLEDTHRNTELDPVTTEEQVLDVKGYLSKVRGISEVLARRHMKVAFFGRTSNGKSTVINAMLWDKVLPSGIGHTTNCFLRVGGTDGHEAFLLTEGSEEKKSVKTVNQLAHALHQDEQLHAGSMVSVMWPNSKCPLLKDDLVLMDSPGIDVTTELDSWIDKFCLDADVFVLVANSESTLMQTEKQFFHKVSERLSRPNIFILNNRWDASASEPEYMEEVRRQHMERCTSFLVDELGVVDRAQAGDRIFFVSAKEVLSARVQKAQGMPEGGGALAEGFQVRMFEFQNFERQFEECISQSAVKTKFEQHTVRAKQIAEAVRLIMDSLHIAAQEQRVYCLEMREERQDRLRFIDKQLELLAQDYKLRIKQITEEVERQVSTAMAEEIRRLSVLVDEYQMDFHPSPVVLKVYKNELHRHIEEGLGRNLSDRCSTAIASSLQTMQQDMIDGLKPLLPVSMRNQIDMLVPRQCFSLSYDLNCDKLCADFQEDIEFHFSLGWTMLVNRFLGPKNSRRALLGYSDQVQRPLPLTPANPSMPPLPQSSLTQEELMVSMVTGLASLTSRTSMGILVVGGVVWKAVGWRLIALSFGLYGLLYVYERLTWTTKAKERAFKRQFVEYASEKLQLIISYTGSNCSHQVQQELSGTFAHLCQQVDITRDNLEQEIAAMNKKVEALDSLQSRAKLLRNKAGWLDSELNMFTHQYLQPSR", "assay": "Binding with mitofusin-2 in myocardial cells under hypoxia and reoxygenation (western blotting)", "conditions": "FIG. 9"}, "[7]": {"conditions": "100 μM, compared with the control group"}, "[8]": {"conditions": "200 μM, compared with the control group"}},
  "note": "Entries after “also recorded” stand apart in the source; their conditions may differ.",
  "data": [
    {"smiles": "CC(C)=CCC[C@](C)(O[C@@H]1O[C@H](CO)[C@@H](O)[C@H](O)[C@H]1O)[C@H]1CC[C@]2(C)[C@@H]1[C@H](O)C[C@@H]1[C@@]3(C)CC[C@H](O)C(C)(C)[C@@H]3[C@@H](O[C@@H]3O[C@H](CO)[C@@H](O)[C@H](O)[C@H]3O)C[C@]12C", "note": "[Rg1]", "values": [
      {"measurement": "Survival rate of myocardial cells", "setting": "H9C2 cell line [1]", "value": "capable of increasing survival rate"},
      {"measurement": "Apoptosis rate of myocardial cells", "setting": "H9C2 cell line [2]; [7]", "value": "significantly inhibit apoptosis"},
      {"measurement": "Apoptosis rate of myocardial cells", "setting": "H9C2 cell line [2]; 200 μM", "value": "can decrease apoptosis rate; also recorded: significantly inhibit apoptosis"},
      {"measurement": "Cytotoxicity of myocardial cells", "setting": "H9C2 cell line [3]", "value": "can decrease the cytotoxicity"},
      {"measurement": "Mitochondrial membrane potential changes", "setting": "H9C2 cell line [4]; [7]", "value": "significantly reduce the decrease of mitochondrial membrane potential changes"},
      {"measurement": "Mitochondrial membrane potential changes", "setting": "H9C2 cell line [4]; [8]", "value": "significantly reduce the decrease of mitochondrial membrane potential changes"},
      {"measurement": "Mitochondrial membrane potential changes", "setting": "H9C2 cell line [4]; JC-1, hypoxia and reoxygenation, concentration not given, FIG. 6", "value": "can inhibit the decrease of mitochondrial membrane potential changes"},
      {"measurement": "ROS release", "setting": "H9C2 cell line [5]; [7]", "value": "significantly reduce the release of ROS"},
      {"measurement": "ROS release", "setting": "H9C2 cell line [5]; [8]", "value": "significantly reduce the release of ROS"},
      {"measurement": "ROS release", "setting": "H9C2 cell line [5]; concentration not given, FIG. 7", "value": "can decrease the release of ROS"},
      {"measurement": "Protection for myocardial cells induced by hypoxia and reoxygenation", "setting": "[6]", "value": "significant protection"},
      {"measurement": "Binding with Mitofusin 2 (Mfn2) in mitochondria", "setting": "Mitofusin 2 (Mfn2)", "value": "binding with Mitofusin 2 (Mfn2)"}
    ]}
  ]
}
